What all share (assay): inhibition of tumour cell growth, NCI panel, 48 h
For test [1], the system named is ACHN renal.
For test [2], the system named is EKVX NSCLC.
Test [3] has as its system HOP-62 NSCLC.
Test [4] has as its system KM12 colon.
The subject of test [5] is MOLT-4 leukemia.
For test [6], the system named is OVCAR-8 ovarian.
Test [7] relates to SF-539 CNS.
Test [8] deals with SK-MEL-5 melanoma.
The test system of test [9] is OVCAR-4 ovarian.

Results on 30 compounds are retold here after PubChem BioAssay (NCI).

Molecules are shown by their SMILES.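 Protocol summary: plate cells (96-well), add compound at 5 concentrations, incubate 48 h, interpolate endpoints linearly. The concentration for 50% growth inhibition is given as GI50. TGI: concentration producing complete growth inhibition.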 Bounds are passed on as bounds.

As to `Cc1ccccc1NC(=O)C(=O)C(C#N)c1ccccc1C` (stereo not drawn), the TGI in test [1], in test [2], in [3], in [4], in [5] and in test [6] was greater than 100 µM each time. For the same compound, the TGI in [7] and in [8] was greater than 100 µM throughout.
On to `C=C1CCC2[C@@H](CCC3[C@]2(C)CCC[C@]3(C)C(=O)OC)C1CC=O` (stereo partly drawn), for which the TGI in test [1] stood at 30 µM; in test [2], 36 µM; in test [3], 39.8 µM; in test [4] it was 36.6 µM; in [5], 29.8 µM; in test [9] it was 32 µM. The TGI is 37.3 µM in [6], 31.1 µM in test [7] and 33.9 µM in [8]. For the same compound, the GI50 in test [3] is 21.2 µM; in [4], 18.7 µM; in [5] it was 11.2 µM.
For the compound `N#CC(C#N)c1ccc(C(=O)N2CCC[C@H]2CO)cc1`, the TGI in [1], in test [2], in test [3], in test [4], in test [5] and in test [9] was greater than 100 µM each time. The TGI in test [6], in test [7] and in test [8] was greater than 100 µM each time.
Take `O=S(=O)(c1cccc(N=C=S)c1)c1cccc(N=C=S)c1`: the TGI in test [1] was 34.5 µM; in [2] it was greater than 100 µM; in test [3], 26.5 µM; in [4] it was 61.5 µM; in test [5] it was 30.6 µM; in test [8], 36.3 µM.
For the compound `Cc1cc(C)nc(NS(=O)(=O)c2ccc(Nc3c4ccccc4nc4c(C(=O)Nc5ccc(S(=O)(=O)N=C(N)N)cc5)cccc34)cc2)n1`, the TGI in [1], in test [2], in test [3], in test [4], in [5] and in [9] was greater than 100 µM in each case. In addition, the TGI in test [6], in test [7] and in [8] was greater than 100 µM each time.
`CCN(CC)CCCCCCNc1cc(OC)cc2cccnc12`: the GI50 was 1.84 µM in test [1]; 13.4 µM in test [2]; 2.06 µM in test [3]; 3.15 µM in test [4]; 1.84 µM in test [5]; 2.5 µM in test [9]. For the same compound, the GI50 in test [6] was 3.04 µM; in test [7], 1.84 µM; in test [8] it was 2.53 µM. Besides, the TGI worked out at 3.56 µM in test [1]; 26.3 µM in [2]; 5.11 µM in [3]; 10.5 µM in [4]; 3.86 µM in test [5]; 9.55 µM in test [9]. Also, the TGI in [6] came out at 8.99 µM; in [7], 3.53 µM; in test [8], 6.34 µM.
Regarding `O=C(O)/C=C/c1nc2ccccc2c(=O)o1`, the TGI in test [1], in [2], in [4], in test [5], in test [9] and in [6] was greater than 100 µM in each case. The TGI in [7] and in [8] was greater than 100 µM throughout.
For the compound `CCOC(=O)/C(C#N)=C(O)/C(=C\c1ccc(Br)cc1)NC(=O)c1ccccc1`, the TGI in test [1], in test [2], in test [3], in test [4], in test [5] and in test [9] was greater than 100 µM in each case. Besides, the TGI in [6], in test [7] and in test [8] was greater than 100 µM each time.
For the compound `COCCNC(=O)C1C(=O)C(=O)N(CCOC)C1=O` (stereo not drawn), the TGI in test [1], in test [2], in test [3], in test [9], in test [6] and in test [7] was greater than 100 µM each time. The TGI in test [8] was greater than 100 µM.
Turning to `CC(C)=CC(=O)N(C)C1C2CN3CCC(O2)C13` (stereo not drawn), the TGI in test [1], in [2], in test [3], in [4], in [5] and in test [9] was greater than 100 µM each time. The TGI in test [6], in test [7] and in [8] was greater than 100 µM each time.
On to `O=S(=O)(/C=C/C(=C/c1ccccc1)S(=O)(=O)c1ccccc1)c1ccccc1`, for which the TGI turned out to be 3.14 µM in test [1]; 3.15 µM in test [2]; 3.5 µM in test [3]; 5.42 µM in test [4]; 5.21 µM in [5]; 3.07 µM in test [9]. In addition, the values for the TGI in [6] and in test [7] were 3.08 µM and 3.15 µM, respectively.
Turning to `CCCCCCCCCCCCC(Br)C(=O)NCC(N)=O` (stereo not drawn), the TGI in test [1] was 29.2 µM; in test [2], 42 µM; in test [3], 29.3 µM; in [4] it was 28.8 µM; in test [9], 12.6 µM; in test [6], 33.6 µM. Further, the TGI was found to be 27.7 µM in [7] and 18.4 µM in test [8].
`N#Cc1ccc(C=NC23CC4CC(CC(C4)C2)C3)cc1`: the TGI in [1], in [2], in test [3], in [4], in test [5] and in test [9] was greater than 100 µM throughout. For the same compound, the TGI in test [6] and in [7] was greater than 100 µM each time.
`Cc1ccc(NC(=O)CC2C(=O)Nc3ccccc3S2(=O)=O)c(C)c1` (stereo not drawn): the TGI in test [1] is 39.1 µM; in test [2], greater than 100 µM; in test [5] it was 28.7 µM; in test [9] it was 41.2 µM; in [6], 34.6 µM; in test [7] it was 30.8 µM. In addition, the TGI in [8] is 19.5 µM.
Regarding `C=CNC(=O)NC(=O)CSc1nnc(-c2ccccc2NC(=O)C(F)(F)F)c(=O)[nH]1`, the TGI in test [2], in [3], in test [4], in [5], in [6] and in test [7] was greater than 100 µM in each case. The same compound yielded a TGI in test [8] of 2.06 µM.
Turning to `NC(=O)NNC(=O)NC12CC3CC(CC(C3)C1)C2`, the TGI in test [1], in test [2], in [3], in test [4], in [5] and in test [9] was greater than 100 µM throughout. In addition, the TGI in test [6], in test [7] and in test [8] was greater than 100 µM in each case.
Regarding `O=C(CC1SC(=Nc2ccccc2Cl)NC1=O)Nc1ccc(Cl)cc1Cl` (stereo not drawn), the TGI in test [1], in [2], in test [3], in test [4], in [5] and in test [9] was greater than 100 µM each time. Moreover, the TGI in test [6] and in test [8] was greater than 100 µM in each case.
Take `O=c1[nH]cc(F)c(=O)n1C1OC(CO)C(O)C1O` (stereo not drawn): the TGI in [1], in test [2], in test [3], in [4], in test [5] and in test [9] was greater than 100 µM throughout. Further, the TGI in [6] and in [8] was greater than 100 µM in each case.
Turning to `O=C(c1nc2ccccc2[nH]c1=O)C(O)c1ccccc1` (stereo not drawn), the TGI in test [1], in test [2], in [3], in test [4], in test [5] and in test [9] was greater than 100 µM each time. The TGI in test [6], in [7] and in test [8] was greater than 100 µM each time.
Regarding `CC(=O)OCCOCNC(=S)N/N=C/c1cc(Br)cs1`, the TGI in test [1], in test [2], in test [3], in [4], in test [5] and in [9] was greater than 100 µM throughout. In addition, the TGI in [6], in test [7] and in test [8] was greater than 100 µM in each case.
Regarding `CC1(c2ccccc2Cl)C(C#N)C(=O)NC(=O)C1C#N` (stereo not drawn), the TGI in test [1], in test [2], in test [3], in [5], in test [9] and in test [6] was greater than 100 µM each time. Moreover, the values for the TGI in [7] and in test [8] were greater than 100 µM and 74.2 µM, respectively.
`COCOCC/C=C/C=O`: the TGI in test [1], in test [2], in [4], in test [5], in test [6] and in [7] was greater than 100 µM each time. The compound further registered a TGI in test [8] greater than 100 µM.
With `Cc1ccc(S(=O)(=O)N/N=C(/CC(=O)c2c(C)n([O-])c3ccccc3[n+]2=O)C(=O)Nc2ccccc2C)cc1`, the TGI in test [1], in test [2], in test [3], in test [4], in [9] and in test [7] was greater than 100 µM in each case.
Regarding `Cc1ccc(C)c(N2C(=O)C(=O)C(c3nc4ccccc4s3)/C(=N/NC(=O)NN)C2=O)c1` (stereo not drawn), the TGI in [1], in test [2], in [3], in test [4], in test [5] and in test [9] was greater than 100 µM each time. Moreover, the TGI in [6], in test [7] and in [8] was greater than 100 µM throughout.
For `COc1ccc(-c2cc(C(=O)Nc3ccc(C)c(C)c3)nc(NC#N)n2)cc1`, the TGI in test [1], in [2], in test [4], in [5], in test [9] and in test [6] was greater than 100 µM each time. Also, the TGI in test [7] and in [8] was greater than 100 µM each time.
`NC(=O)c1csc(C2OC(COP(=O)(O)CP(=O)(O)OCC3OC(n4cnc5c(N)ncnc54)C(O)C3O)C(O)C2O)n1` (stereo not drawn): the TGI in test [1], in test [2], in test [3], in test [4], in [5] and in [9] was greater than 100 µM each time. The TGI in [6], in [7] and in [8] was greater than 100 µM throughout.
On to `CC1(C)CC(=O)C(/C(=N/NC(=S)NN)C(=O)Nc2nc3ccc([N+](=O)[O-])cc3s2)C(=O)C1`, for which the TGI in test [1], in test [2], in test [3], in test [4], in test [5] and in [9] was greater than 100 µM each time. Also, the TGI in test [6], in test [7] and in test [8] was greater than 100 µM throughout.
In the case of `C[CH2][Sn]([CH2]C)([O]C(=O)c1ccccc1OC)[O][Sn]([CH2]C)([CH2]C)[O]C(=O)c1ccccc1OC`, the GI50 in test [1], in test [2], in [3], in test [4], in test [5] and in [9] was greater than 100 µM throughout. Further, the GI50 in [6], in test [7] and in test [8] was greater than 100 µM in each case. The TGI in [1], in [2], in test [3], in test [4], in test [5] and in test [9] was greater than 100 µM in each case. Also, the TGI in test [6], in [7] and in [8] was greater than 100 µM each time.
Turning to `COc1ccc(/C=C2\CCC(C)(CN(C)C)C2=O)cc1OC` (stereo not drawn), the TGI in test [1], in test [2], in test [3], in [4], in [5] and in test [9] was greater than 100 µM in each case. For the same compound, the TGI in [6], in test [7] and in test [8] was greater than 100 µM in each case.
Regarding `O=C1Nc2ccccc2N=CC1NC(=O)C(c1ccccc1)c1ccccc1` (stereo not drawn), the TGI in test [1], in test [2], in [3], in test [4], in [5] and in test [9] was greater than 100 µM throughout. Besides, the TGI in [6], in [7] and in test [8] was greater than 100 µM throughout.
